Drawing on ChEMBL document CHEMBL5365456, “Isolation and biological activity of natural chalcones based on antibacterial mechanism classification” (Bioorg Med Chem, 2023), this text covers MIC90 for one compound.

For this test, the system named is Mycobacterium tuberculosis. The experiment in a line: Antitubercular activity against multi-drug-resistant Mycobacterium tuberculosis M22 assessed as bacterial growth inhibition measured for 9 days. It is filed as functional. To be noted: M22, 216 h, time 9 day.

Values after ≈ are worked out from the molar mass of the structure shown.

`O=C(CCc1ccc(O)cc1)c1c(O)cc(O)cc1O` [PHLORETIN]: the MIC90 came out at 182 µM (≈ 49.9 µg/mL).

A word on the MIC90: it is the lowest concentration that inhibits either 90% of growth or 90% of the strains tested, depending on the study.
